In patent publication US20150225369A1, “DDR2 INHIBITORS FOR THE TREATMENT OF OSTEOARTHRITIS” (Merck Patent GmbH, priority 2012, published 2015):
Read-outs that look alike come from different tables or passages of the source.

Assays:
[1] = biological target: T1, His-tagged human recombinant DDR-2 kinase domain (His-TEV-DDR2 467-855 aa) (Homo sapiens, UniProt Q16832); experiment: Autophosphorylation assay for biochemical activity testing of DDR2 (HTRF)
T1 construct: His-TEV-DDR2 467-855 aa
T1 sequence (Q16832 467-855): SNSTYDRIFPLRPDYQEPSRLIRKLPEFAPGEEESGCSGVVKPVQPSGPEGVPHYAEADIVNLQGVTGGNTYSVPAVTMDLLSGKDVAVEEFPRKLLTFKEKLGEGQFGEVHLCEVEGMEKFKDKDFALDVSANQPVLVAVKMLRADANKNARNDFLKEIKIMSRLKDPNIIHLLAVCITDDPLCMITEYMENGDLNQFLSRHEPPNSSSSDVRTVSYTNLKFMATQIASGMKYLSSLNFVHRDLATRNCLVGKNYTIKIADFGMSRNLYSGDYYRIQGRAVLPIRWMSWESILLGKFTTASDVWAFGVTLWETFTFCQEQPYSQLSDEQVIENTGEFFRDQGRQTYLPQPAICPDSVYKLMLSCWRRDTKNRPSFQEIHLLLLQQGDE
In short: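 Phospho-tyrosine was detected by HTRF between XL665 anti-6His and cryptate anti-phosphotyrosine PT66 antibodies, using the emission ratio. Inhibition was referenced to the inhibitor-free reaction.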

[2] = biological target: T2, HEK293 transfected with human DDR2 (Homo sapiens, UniProt Q16832); experiment: Phospho-DDR2 cellular assay (collagen II induced DDR2 phosphorylation, ELISA); format: cell-based; details: read-out: IC50 [p-DDR2]
T2 construct: expressed in transfected cells; host or cells: HEK293 (PLT460F_(DDR2)-P7-1)
T2 sequence (Q16832 22-855): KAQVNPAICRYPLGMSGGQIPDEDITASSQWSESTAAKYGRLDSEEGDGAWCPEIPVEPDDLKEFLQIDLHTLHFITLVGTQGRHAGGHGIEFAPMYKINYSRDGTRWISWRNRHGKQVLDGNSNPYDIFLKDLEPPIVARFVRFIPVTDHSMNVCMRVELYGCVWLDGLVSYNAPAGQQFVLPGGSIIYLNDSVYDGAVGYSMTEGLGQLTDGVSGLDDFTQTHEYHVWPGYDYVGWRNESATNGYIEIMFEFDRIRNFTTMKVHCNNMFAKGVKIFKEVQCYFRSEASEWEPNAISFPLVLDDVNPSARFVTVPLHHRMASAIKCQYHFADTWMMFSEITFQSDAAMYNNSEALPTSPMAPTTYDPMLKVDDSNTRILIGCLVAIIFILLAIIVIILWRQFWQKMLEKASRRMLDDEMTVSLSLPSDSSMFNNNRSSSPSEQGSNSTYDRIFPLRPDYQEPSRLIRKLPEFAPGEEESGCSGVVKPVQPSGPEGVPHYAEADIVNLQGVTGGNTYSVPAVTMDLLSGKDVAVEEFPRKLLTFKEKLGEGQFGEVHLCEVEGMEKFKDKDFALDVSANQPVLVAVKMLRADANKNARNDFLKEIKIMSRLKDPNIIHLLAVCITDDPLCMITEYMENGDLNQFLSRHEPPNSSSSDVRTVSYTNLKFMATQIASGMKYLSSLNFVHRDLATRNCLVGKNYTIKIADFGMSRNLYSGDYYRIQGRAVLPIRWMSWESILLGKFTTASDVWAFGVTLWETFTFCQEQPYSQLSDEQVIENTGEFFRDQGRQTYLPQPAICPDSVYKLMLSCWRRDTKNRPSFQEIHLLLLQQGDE
In short: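 Cells seeded 48 h in 10% FBS, serum-starved 8 h, then given compound (5% DMSO) with 50 μg/ml chicken collagen II for 16 h at 37 °C. Lysates captured on anti-DDR2 antibody plates; phospho-DDR2 detected with HRP anti-phosphotyrosine antibody by chemiluminescence.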

[3] = biochemical DDR2 autophosphorylation
[4] = 4 nM DDR2 kinase domain, 150 μM ATP, 150 min at 22° C.
[5] = HEK293 transfected with human DDR2, 50 μg/ml chicken collagen II, 16 h

| SMILES | IC50 [1, 3] [nM] | IC50 ([2]; cellular phospho-DDR2) [nM] | IC50 [1, 4] [nM] | IC50 [2, 5] [nM] |
| --- | --- | --- | --- | --- |
| CNC(=O)c1cc(Oc2ccc(CNC(=O)Nc3cc(Cl)c(C)cc3OCCNC(C)C)cc2)ccn1 [compound 183, 4-(4-{3-[5-Chloro-2-(2-isopropylamino-ethoxy)-4-methyl-phenyl]-ureidomethyl}-phenoxy)-pyridine-2-carboxylic acid methylamide] | 89 | 35 |  |  |
| CNCCOc1ccc(C(F)(F)F)cc1NC(=O)NCc1ccc(Oc2ccnc(C(=O)NC)c2)cc1 [compound 111, 4-(4-{3-[2-(2-Methylamino-ethoxy)-5-trifluoromethyl-phenyl]-ureidomethyl}-phenoxy)-pyridine-2-carboxylic acid methylamide] | 64 | 24 |  |  |
| CNC(=O)c1cc(Oc2ccc(CNC(=O)Nc3cc(C(F)(F)F)ccc3OCC(N)=O)cc2)ccn1 [compound 190, 4-{4-[3-(2-Carbamoylmethoxy-5-trifluoromethyl-phenyl)-ureidomethyl]-phenoxy}-pyridine-2-carboxylic acid methylamide] | 120 | 40 |  |  |
| CNC(=O)c1cc(Oc2ccc(CNC(=O)Nc3cc(C(F)(F)F)ccc3OCC(C)(C)N)cc2)ccn1 [compound 160, 4-(4-{3-[2-(2-Amino-2-methyl-propoxy)-5-trifluoromethyl-phenyl]-ureidomethyl}-phenoxy)-pyridine-2-carboxylic acid methylamide] | 360 | 95 |  |  |
| CNC(=O)c1cc(Oc2ccc(CNC(=O)Nc3cc(C)c(Cl)cc3OCCCN(C)C)cc2)ccn1 [compound 153, 4-(4-{3-[4-Chloro-2-(3-dimethylamino-propoxy)-5-methyl-phenyl]-ureidomethyl}-phenoxy)-pyridine-2-carboxylic acid methylamide] | 140 | 55 |  |  |
| CNC(=O)c1cc(Oc2ccc(CNC(=O)Nc3cc(C(F)(F)F)c(Cl)cc3OCCCN)cc2)ccn1 [compound 191, 4-(4-{3-[2-(3-Amino-propoxy)-4-chloro-5-trifluoromethyl-phenyl]-ureidomethyl}-phenoxy)-pyridine-2-carboxylic acid methylamide] | 590 | 106 |  |  |
| CNCCOc1cc(Cl)c(C)cc1NC(=O)NCc1ccc(Oc2ccnc(C(=O)NC)c2)c(C)c1 [compound 141, 4-(4-{3-[4-Chloro-5-methyl-2-(2-methylamino-ethoxy)-phenyl]-ureidomethyl}-2-methyl-phenoxy)-pyridine-2-carboxylic acid methylamide] | 43 | 25 |  |  |
| CNC(=O)c1cc(Oc2ccc(CNC(=O)Nc3cc(Cl)c(C)cc3OCCN3CCNCC3)cc2)ccn1 [compound 179, 4-(4-{3-[5-Chloro-4-methyl-2-(2-piperazin-1-yl-ethoxy)-phenyl]-ureidomethyl}-phenoxy)-pyridine-2-carboxylic acid methylamide] | 160 | 38 |  |  |
| CNC(=O)c1cc(Oc2ccc(CNC(=O)Nc3cc(C)c(Cl)cc3OCCN)cc2C)ccn1 [compound 144, 4-(4-{3-[2-(2-Amino-ethoxy)-4-chloro-5-methyl-phenyl]-ureidomethyl}-2-methyl-phenoxy)-pyridine-2-carboxylic acid methylamide] | 49 | 53 |  |  |
| CNCCOc1cc(Cl)c(C(F)(F)F)cc1NC(=O)NCc1ccc(Oc2ccnc(C(=O)NC)c2)cc1 [compound 127, 4-(4-{3-[4-Chloro-2-(2-methylamino-ethoxy)-5-trifluoromethyl-phenyl]-ureidomethyl}-phenoxy)-pyridine-2-carboxylic acid methylamide] | 47 | 34 |  |  |
| CNC(=O)c1cc(Oc2ccc(CNC(=O)Nc3cc(C)c(Cl)cc3OC3CCNCC3)cc2)ccn1 [compound 124, 4-(4-{3-[4-Chloro-5-methyl-2-(piperidin-4-yloxy)-phenyl]-ureidomethyl}-phenoxy)-pyridine-2-carboxylic acid methylamide] | 66 | 40 |  |  |
| CNC(=O)c1cc(Oc2ccc(CNC(=O)Nc3cc(C)c(Cl)cc3OC3CCNCC3)cc2C)ccn1 [compound 142, 4-(4-{3-[4-Chloro-5-methyl-2-(piperidin-4-yloxy)-phenyl]-ureidomethyl}-2-methyl-phenoxy)-pyridine-2-carboxylic acid methylamide] | 36 | 33 |  |  |
| CNC(=O)c1cc(Oc2ccc(CNC(=O)Nc3cc(C(F)(F)F)ccc3OCCN(C)C)cc2C)ccn1 [compound 150, 4-(4-{3-[2-(2-Dimethylamino-ethoxy)-5-trifluoromethyl-phenyl]-ureidomethyl}-2-methyl-phenoxy)-pyridine-2-carboxylic acid methylamide] | 42 | 10 |  |  |
| CNC(=O)c1cc(Oc2ccc(CNC(=O)Nc3cc(Cl)c(C)cc3OC)cc2)ccn1 [compound 66, 4-{4-[3-(5-Chloro-2-methoxy-4-methyl-phenyl)-ureidomethyl]-phenoxy}-pyridine-2-carboxylic acid methylamide] | 55 | 9 |  |  |
| CNC(=O)c1cc(Oc2ccc(CNC(=O)Nc3ccc(C)cn3)cc2)ccn1 [compound 210, 4-{4-[3-(5-Methyl-pyridin-2-yl)-ureidomethyl]-phenoxy}-pyridine-2-carboxylic acid methylamide] | 2000 | 1500 |  |  |
| CNC(=O)c1cc(Oc2ccc(CNC(=O)Nc3cc(C(F)(F)F)ccc3OCCN3CCNCC3)cc2)ccn1 [compound 112, 4-(4-{3-[2-(2-Piperazin-1-yl-ethoxy)-5-trifluoromethyl-phenyl]-ureidomethyl}-phenoxy)-pyridine-2-carboxylic acid methylamide] | 130 | 47 |  |  |
| CNC(=O)c1cc(Oc2ccc(CNC(=O)Nc3cc(C(F)(F)F)ccc3OCCNC(C)C)cc2)ccn1 [compound 172, 4-(4-{3-[2-(2-Isopropylamino-ethoxy)-5-trifluoromethyl-phenyl]-ureidomethyl}-phenoxy)-pyridine-2-carboxylic acid methylamide] | 140 | 31 |  |  |
| CNCCOc1ccc(C)cc1NC(=O)NCc1ccc(Oc2ccnc(C(=O)NC)c2)c(C)c1 [compound 215, 4-(2-Methyl-4-{3-[5-methyl-2-(2-methylamino-ethoxy)-phenyl]-ureidomethyl}-phenoxy)-pyridine-2-carboxylic acid methylamide] | 69 | 40 |  |  |
| COc1ncc(Cl)cc1NC(=O)NCc1ccc(Oc2ccnc(C)c2)cc1 [compound 27] |  |  | 190 | 42 |
| CNC(=O)c1cc(Oc2ccc(CNC(=O)Nc3ccnc(Cl)c3)cc2)ccn1 [compound 89, 4-{4-[3-(2-Chloro-pyridin-4-yl)-ureidomethyl]-phenoxy}-pyridine-2-carboxylic acid methylamide] | 1000 | 1450 |  |  |
| CNC(=O)c1cc(Oc2ccc(CNC(=O)Nc3ccc(C)cn3)cc2C)ccn1 [compound 211, 4-{2-Methyl-4-[3-(5-methyl-pyridin-2-yl)-ureidomethyl]-phenoxy}-pyridine-2-carboxylic acid methylamide] | 780 | 630 |  |  |
| O=C(Nc1ccc(Cc2nc3cc[nH]c(=O)c3[nH]2)cc1)Nc1cccc(C(F)(F)F)c1 [compound 4] |  |  | 25 | 320 |
| CNC(=O)c1cc(Oc2ccc(CNC(=O)Nc3cc(Cl)c(C)cc3OC3CCNCC3)cc2)ccn1 [compound 178, 4-(4-{3-[5-Chloro-4-methyl-2-(piperidin-4-yloxy)-phenyl]-ureidomethyl}-phenoxy)-pyridine-2-carboxylic acid methylamide] | 35 | 25 |  |  |
